IC50 data for 18 compounds are collected here from patent US9926330B2, “Inhibitors of IRAK4 activity” (MERCK SHARP & DOHME CORP., priority 2014, dated 2018).

For orientation: IC50 means the midpoint of a concentration-inhibition curve. A lower IC50 goes with greater potency.

Chain of GST tagged IRAK4 (Q9NWZ3 whole entry): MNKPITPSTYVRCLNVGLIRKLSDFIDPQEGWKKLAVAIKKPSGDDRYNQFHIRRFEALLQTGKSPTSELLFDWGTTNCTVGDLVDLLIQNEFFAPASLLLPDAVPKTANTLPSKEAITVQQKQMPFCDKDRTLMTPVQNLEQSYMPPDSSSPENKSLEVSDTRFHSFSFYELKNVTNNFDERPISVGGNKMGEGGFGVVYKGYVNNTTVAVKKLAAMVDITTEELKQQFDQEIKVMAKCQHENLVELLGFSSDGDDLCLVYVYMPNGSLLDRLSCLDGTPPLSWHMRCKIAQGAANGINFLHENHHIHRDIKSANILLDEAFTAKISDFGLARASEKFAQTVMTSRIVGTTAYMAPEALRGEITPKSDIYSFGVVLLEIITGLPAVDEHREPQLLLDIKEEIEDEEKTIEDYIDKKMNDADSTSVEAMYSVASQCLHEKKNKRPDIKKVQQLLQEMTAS

This test addresses GST tagged IRAK4 (Homo sapiens (Human), UniProt Q9NWZ3). Kind of test: IRAK4 Kinase Assay (IMAP fluorescence polarization). In kind it is biochemical. The settings on record: 0.5 nM GST tagged IRAK4, 100 nM fluorescent peptide substrate RP7030, 100 μM ATP, 30 minutes at 25° C., IMAP FP readout. As for the experimental part:
The kinase activity of IRAK4 is determined by its ability to catalyze the phosphorylation of a fluorescent polypeptide substrate. The extent of phosphorylation is measured using the IMAP technology (Molecular Devices) where the phosphorylated fluorescent substrate binds to the large M(III)-based nanoparticles which reduces the rotational speed of the substrate and thus increases its fluorescent polarization (FP).
20 μL reaction mixture contains 10 mM TriHCl, pH 7.2, 0.5 nM GST tagged IRAK4 (SignalChem), 100 nM fluorescent peptide substrate (RP7030, Molecular Devices), 100 μM ATP, 1 mM DDT, 1 mM MgCl2, and 0.01% Tween 20. The reaction is initiated by the addition of ATP. After incubation for 30 minutes at 25° C., 60 μL of Progressive IMAP Reagent (Molecular Devices) is added to stop the reaction. Change in RP7030's FP is determined by a FP reader (Analyst HT, LJL BioSystems).
On the technique in general: In fluorescence polarisation assays a small probe gives low polarisation when free and higher when bound to something large.
Regarding `Cc1ccc2ncnc(N[C@H]3CC[C@H](N4CC(S(C)(=O)=O)C4)CC3)c2c1` [Example 2-1, 6-methyl-N-((1R,4R)-4-(3-(methylsulfonyl)azetidin-1-yl)cyclohexyl)quinazolin-4-amine], the IC50 is 384 nM.

`Cc1ccc2ncnc(N[C@H]3CC[C@H](NC4CCOCC4)CC3)c2c1` [Example 2-17, (trans)-N1-(6-methylquinazolin-4-yl)-N4-(tetrahydro-2H-pyran-4-yl)cyclohexane-1,4-diamine]: 77 nM corresponded to half-maximal inhibition (IC50).

For the compound `C=Cc1ccc2ncnc(NC3CCC(N(C)C)CC3)c2c1` (stereo not drawn) [Example 3-2, N′-(6-ethenylquinazolin-4-yl)-N,N-dimethylcyclohexane-1,4-diamine], half-maximal inhibition (IC50) required 7 nM.

In turn, `Cc1ccc2ncnc(NC3CCC(N4CCCCC4C(F)(F)F)CC3)c2c1` (stereo not drawn) [Example 2-15, 6-methyl-N-{4-[2-(trifluoromethyl)piperidin-1-yl]cyclohexyl}quinazolin-4-amine] had an IC50 of 1760 nM.

In turn, `Cc1ccc2ncnc(N[C@H]3CC[C@H](NC(C)C)CC3)c2c1` [Example 2-24, trans-N-(1-methylethyl)-N′-(6-methylquinazolin-4-yl)cyclohexane-1,4-diamine] returned an IC50 of 44 nM.

In the case of `OCCCc1ccc2ncnc(N[C@H]3CC[C@H](N4CCOCC4)CC3)c2c1` [Example 5-2, 3-{4-[(trans-4-morpholin-4-ylcyclohexyl)amino]quinazolin-6-yl}propan-1-ol], the IC50 came out at 10 nM.

`CC(C)c1ccc2ncnc(NC3CCC(N(C)C)CC3)c2c1` (stereo not drawn) [Example 4-2, N,N-dimethyl-N′-[6-(1-methylethyl)quinazolin-4-yl]cyclohexane-1,4-diamine] yielded an IC50 of 16 nM.

In turn, `OCCCCc1ccc2ncnc(N[C@H]3CC[C@H](N4CCOCC4)CC3)c2c1` [Example 5-3, 4-{4-[(trans-4-morpholin-4-ylcyclohexyl)amino]quinazolin-6-yl}butan-1-ol] displayed an IC50 of 68 nM.

As for `Cc1ccc2ncnc(NC3CCC(N4CCCC(C(F)(F)F)C4)CC3)c2c1` (stereo not drawn) [Example 2-16, 6-methyl-N-{4-[3-(trifluoromethyl)piperidin-1-yl]cyclohexyl}quinazolin-4-amine], the IC50 worked out at 269 nM.

In turn, `CCCc1ccc2ncnc(N[C@H]3CC[C@H](N4CCOCC4)CC3)c2c1` [Example 4-4, N-(trans-4-morpholin-4-ylcyclohexyl)-6-propylquinazolin-4-amine] gave an IC50 of 11 nM.

As for `Cc1ccc2ncnc(NC3CCC(N4CCCCC4C(F)(F)F)CC3)c2c1` (stereo not drawn) [Example 2-14, 6-methyl-N-{4-[2-(trifluoromethyl)piperidin-1-yl]cyclohexyl}quinazolin-4-amine], the IC50 came out at 3230 nM.

Take `Cc1ccc2ncnc(N[C@H]3CC[C@@H](N4CC(F)C4)CC3)c2c1` [Example 2-2, N-[cis-4-(3-fluoroazetidin-1-yl)cyclohexyl]-6-methylquinazolin-4-amine]: the half-inhibitory concentration (IC50) is 1360 nM.

Regarding `Cc1ccc2ncnc(N[C@H]3CC[C@H](NCC4(C)COC4)CC3)c2c1` [Example 2-27, trans-N-[(3-methyloxetan-3-yl)methyl]-N′-(6-methylquinazolin-4-yl)cyclohexane-1,4-diamine], it took 77 nM to reach half-maximal inhibition (IC50).

`Cc1ccc2ncnc(N[C@H]3CC[C@H](N4CC(F)C4)CC3)c2c1` [Example 2-3, N-[trans-4-(3-fluoroazetidin-1-yl)cyclohexyl]-6-methylquinazolin-4-amine] showed an IC50 of 94 nM.

`CN(C)[C@H]1CC[C@H](Nc2ncnc3ccc(CCO)cc23)CC1` [Example 5-1, 2-(4-(((trans)-4-(dimethylamino)cyclohexyl)amino)quinazolin-6-yl)ethan-1-ol] had an IC50 of 17 nM.

With `Cc1ccc2ncnc(NC3CCC(N4CCCC(C(F)(F)F)C4)CC3)c2c1` (stereo not drawn) [Example 2-13, 6-methyl-N-{4-[3-(trifluoromethyl)piperidin-1-yl]cyclohexyl}quinazolin-4-amine], half-maximal inhibition (IC50) was put at 17 nM.

Turning to `Cc1ccc2ncnc(N[C@H]3CC[C@H](N4CCC5(COC5)C4)CC3)c2c1` [Example 2-9, 6-methyl-N-[trans-4-(2-oxa-6-azaspiro[3.4]oct-6-yl)cyclohexyl]quinazolin-4-amine], the midpoint of inhibition, the IC50, lay at 95 nM.

On to `Cc1ccc2ncnc(N[C@H]3CC[C@H](N(C)C)CC3)c2c1` [Example 1-2, trans-N,N-dimethyl-N′-(6-methylquinazolin-4-yl)cyclohexane-1,4-diamine], for which the IC50 came to 19 nM.
